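Briefly, cells in 96-well plates were exposed to five compound concentrations for 48 h, and endpoints were estimated by linear interpolation. Here, GI50 denotes the concentration required for 50% inhibition of growth.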 The source made the active and inactive calls. Rule as the data show it: active = GI50 up to about 1.1 µM and inactive = higher.
How the values were obtained:
Test in all cases: inhibition of tumour cell growth, NCI panel, 48 h
SK-MEL-5 = test system: SK-MEL-5
MOLT-4 = test system: MOLT-4
UO-31 = test system: UO-31
OVCAR-5 = test system: OVCAR-5
SK-MEL-28 = test system: SK-MEL-28
DU-145 = test system: DU-145
CAKI-1 = test system: CAKI-1
MCF7 = test system: MCF7
SK-OV-3 = test system: SK-OV-3
KM12 = test system: KM12
K562 = test system: K562
MDA-N = test system: MDA-N
HOP-92 = test system: HOP-92
SN12C = test system: SN12C
NCI-H23 = test system: NCI-H23
BT-549 = test system: BT-549
HL-60 = test system: HL-60
LOX IMVI = test system: LOX IMVI
CCRF-CEM = test system: CCRF-CEM
OVCAR-8 = test system: OVCAR-8

SMILES | GI50 (SK-MEL-5) | GI50 (MOLT-4) | GI50 (UO-31) | GI50 (OVCAR-5) | GI50 (SK-MEL-28) | GI50 (DU-145) | GI50 (CAKI-1) | GI50 (MCF7) | GI50 (SK-OV-3) | GI50 (KM12) | GI50 (K562) | GI50 (MDA-N) | GI50 (HOP-92) | GI50 (SN12C) | GI50 (NCI-H23) | GI50 (BT-549) | GI50 (HL-60) | GI50 (LOX IMVI) | GI50 (CCRF-CEM) | GI50 (OVCAR-8)
Clc1ccc(Nc2nnc(CCCCCCCCc3nnc(Nc4ccc(Cl)cc4)o3)o2)cc1 | 23.1 µM (inactive) | 10.9 µM (inactive) | 36.8 µM (inactive) | 23.7 µM (inactive) | 48.6 µM (inactive) | 25.5 µM (inactive) | 38.3 µM (inactive) | 39 µM (inactive) | 35.7 µM (inactive) | 23.4 µM (inactive) | 7.35 µM (inactive) | 33.3 µM (inactive) | 23.8 µM (inactive) | 45.7 µM (inactive) | 27.6 µM (inactive) | 31.9 µM (inactive) | – | – | – | –
CN1C(=O)N(C)C(O)C(Cl)(Br)C1=O (centres undefined) | > 100 µM (inactive) | > 100 µM (inactive) | > 100 µM (inactive) | 0.182 µM (active) | > 100 µM (inactive) | > 100 µM (inactive) | > 100 µM (inactive) | > 100 µM (inactive) | > 100 µM (inactive) | > 100 µM (inactive) | > 100 µM (inactive) | > 100 µM (inactive) | – | > 100 µM (inactive) | > 100 µM (inactive) | > 100 µM (inactive) | > 100 µM (inactive) | > 100 µM (inactive) | > 100 µM (inactive) | > 100 µM (inactive)
O=c1c(C(c2cnc3ccccc3c2)c2c(O)oc3ccccc3c2=O)c(O)oc2ccccc12 | 57.8 µM (inactive) | 27.7 µM (inactive) | 29.4 µM (inactive) | – | 25.9 µM (inactive) | > 100 µM (inactive) | 41.3 µM (inactive) | – | – | 37.4 µM (inactive) | 35.4 µM (inactive) | 21.4 µM (inactive) | 20.2 µM (inactive) | 25.5 µM (inactive) | 41.7 µM (inactive) | 20.7 µM (inactive) | 37.8 µM (inactive) | 40.1 µM (inactive) | 55.1 µM (inactive) | 33 µM (inactive)
O=[N+]([O-])C(=C/C1CCCCC1)/C(=C\C1CCCCC1)[N+](=O)[O-] | 7.83 µM (inactive) | 1.56 µM (inactive) | 7.87 µM (inactive) | 11.7 µM (inactive) | 5.06 µM (inactive) | 13.3 µM (inactive) | 3.85 µM (inactive) | 5.3 µM (inactive) | 21.7 µM (inactive) | 11.1 µM (inactive) | 4.49 µM (inactive) | – | 7.05 µM (inactive) | 3.24 µM (inactive) | 2.99 µM (inactive) | 5.42 µM (inactive) | 2.09 µM (inactive) | 2.12 µM (inactive) | 2.62 µM (inactive) | 3.3 µM (inactive)
CN(c1ccccc1Cl)S(=O)(=O)c1ccccc1[N+](=O)[O-] | 15.3 µM (inactive) | 25.7 µM (inactive) | 31.6 µM (inactive) | 30.6 µM (inactive) | 39.6 µM (inactive) | 91.6 µM (inactive) | 48.8 µM (inactive) | > 10 µM (inactive) | 51.5 µM (inactive) | 38.9 µM (inactive) | 21.3 µM (inactive) | 33.9 µM (inactive) | – | 95.7 µM (inactive) | 35.2 µM (inactive) | 22.6 µM (inactive) | 24 µM (inactive) | 42.6 µM (inactive) | 33.2 µM (inactive) | 56.8 µM (inactive)
CCOC(=O)/C(C(=O)Nc1ccc(F)cc1)=C(/N)N1CCCC1 | – | > 100 µM (inactive) | – | > 100 µM (inactive) | > 100 µM (inactive) | > 100 µM (inactive) | > 100 µM (inactive) | > 100 µM (inactive) | > 100 µM (inactive) | > 100 µM (inactive) | > 100 µM (inactive) | > 100 µM (inactive) | – | > 100 µM (inactive) | < 0.01 µM (active) | 92.9 µM (inactive) | > 100 µM (inactive) | > 100 µM (inactive) | > 100 µM (inactive) | > 100 µM (inactive)
CC1(C)OC(=O)C(Cc2ccccc2)(Cc2ccccc2)C(=O)O1 | > 100 µM (inactive) | > 100 µM (inactive) | > 100 µM (inactive) | > 100 µM (inactive) | > 100 µM (inactive) | > 100 µM (inactive) | > 100 µM (inactive) | > 100 µM (inactive) | > 100 µM (inactive) | > 100 µM (inactive) | > 100 µM (inactive) | > 100 µM (inactive) | – | > 100 µM (inactive) | > 100 µM (inactive) | > 100 µM (inactive) | > 100 µM (inactive) | > 100 µM (inactive) | > 100 µM (inactive) | > 100 µM (inactive)
COc1cccc(C(=O)O[C@H]2[C@@H]3[C@]4(OC(C)=O)CO[C@@H]4C[C@H](O)[C@@]3(C)C(=O)[C@H](OC(C)=O)C3=C(C)[C@@H](OC(=O)[C@H](O)[C@@H](NC(=O)OC(C)(C)C)c4ccco4)C[C@]2(O)C3(C)C)c1 | < 0.00375 µM (active) | < 0.00375 µM (active) | < 0.00375 µM (active) | 0.147 µM (active) | 3.82 µM (inactive) | < 0.00375 µM (active) | < 0.00375 µM (active) | < 0.00375 µM (active) | < 0.00375 µM (active) | < 0.00375 µM (active) | < 0.00375 µM (active) | < 0.00375 µM (active) | – | 0.064 µM (active) | 6.04 µM (inactive) | 0.0556 µM (active) | < 0.00375 µM (active) | < 0.00375 µM (active) | < 0.00375 µM (active) | < 0.00375 µM (active)
CC1(C)CC(=O)C(Cc2ccccc2)(Cc2ccccc2)C(=O)C1 | > 100 µM (inactive) | > 100 µM (inactive) | > 100 µM (inactive) | > 100 µM (inactive) | > 100 µM (inactive) | > 100 µM (inactive) | > 100 µM (inactive) | > 100 µM (inactive) | > 100 µM (inactive) | > 100 µM (inactive) | > 100 µM (inactive) | > 100 µM (inactive) | – | > 100 µM (inactive) | > 100 µM (inactive) | > 100 µM (inactive) | > 100 µM (inactive) | > 100 µM (inactive) | > 100 µM (inactive) | > 100 µM (inactive)
Cc1nc(C)c(Cc2ccccc2)o1 | > 100 µM (inactive) | > 100 µM (inactive) | 47.6 µM (inactive) | > 100 µM (inactive) | > 100 µM (inactive) | > 100 µM (inactive) | > 100 µM (inactive) | > 100 µM (inactive) | > 100 µM (inactive) | > 100 µM (inactive) | > 100 µM (inactive) | > 100 µM (inactive) | – | > 100 µM (inactive) | > 100 µM (inactive) | > 100 µM (inactive) | > 100 µM (inactive) | > 100 µM (inactive) | > 100 µM (inactive) | > 100 µM (inactive)
N/C(=N\O)N/N=C/c1cc(I)cc(I)c1O | 30.6 µM (inactive) | > 100 µM (inactive) | – | 79.1 µM (inactive) | 49.2 µM (inactive) | 31.6 µM (inactive) | 57.1 µM (inactive) | 10 µM (inactive) | 75.5 µM (inactive) | > 100 µM (inactive) | 43.2 µM (inactive) | 82.6 µM (inactive) | – | 28.8 µM (inactive) | 28 µM (inactive) | 47.4 µM (inactive) | 13.2 µM (inactive) | 25.4 µM (inactive) | 7.89 µM (inactive) | 27.9 µM (inactive)
Cc1cc(S(=O)(=O)Nc2nc(N)n(-c3ccccc3)n2)c(S)cc1Cl | > 100 µM (inactive) | > 100 µM (inactive) | > 100 µM (inactive) | > 100 µM (inactive) | > 100 µM (inactive) | > 100 µM (inactive) | > 100 µM (inactive) | > 100 µM (inactive) | > 100 µM (inactive) | > 100 µM (inactive) | > 100 µM (inactive) | > 100 µM (inactive) | – | > 100 µM (inactive) | – | 45.1 µM (inactive) | > 100 µM (inactive) | > 100 µM (inactive) | > 100 µM (inactive) | > 100 µM (inactive)
NC(Cc1ccc(OCc2ccccc2)cn1)C(=O)O (centres undefined) | > 100 µM (inactive) | > 100 µM (inactive) | > 100 µM (inactive) | > 100 µM (inactive) | > 100 µM (inactive) | > 100 µM (inactive) | > 100 µM (inactive) | > 100 µM (inactive) | – | > 100 µM (inactive) | > 100 µM (inactive) | > 100 µM (inactive) | – | > 100 µM (inactive) | > 100 µM (inactive) | > 100 µM (inactive) | > 100 µM (inactive) | > 100 µM (inactive) | > 100 µM (inactive) | > 100 µM (inactive)
CSc1nc(Cl)c2c(n1)Sc1nc3cc4c(cc3n1C2O)OCCO4 (centres undefined) | 0.0703 µM (active) | 0.0348 µM (active) | 0.112 µM (active) | 4.03 µM (inactive) | 0.501 µM (active) | 0.124 µM (active) | – | 0.053 µM (active) | 0.445 µM (active) | 0.06 µM (active) | 0.0318 µM (active) | 0.0308 µM (active) | 0.875 µM (active) | 0.526 µM (active) | 0.39 µM (active) | 0.489 µM (active) | – | < 0.0162 µM (active) | 0.0246 µM (active) | 0.106 µM (active)
CC(=O)C1=C(O)/C(=C\c2ccco2)OC1=O | > 10 µM (inactive) | > 10 µM (inactive) | > 10 µM (inactive) | > 10 µM (inactive) | > 10 µM (inactive) | > 10 µM (inactive) | > 10 µM (inactive) | > 10 µM (inactive) | > 10 µM (inactive) | > 10 µM (inactive) | > 10 µM (inactive) | – | > 10 µM (inactive) | > 10 µM (inactive) | > 10 µM (inactive) | > 10 µM (inactive) | > 10 µM (inactive) | > 10 µM (inactive) | > 10 µM (inactive) | > 10 µM (inactive)

Source: ChEMBL document CHEMBL1201862, “PubChem BioAssay data set” (2004)
